Results reported in US11191855B2, “1,7-diaryl-1,6-heptadiene-3,5-dione derivatives, methods for the production and use thereof” (UNIVERSITÄTSKLINIKUM REGENSBURG, priority 2015, dated 2021).

Columns and labels:
E. coli ATCC 25922 [1] = experiment: Comparative Example 3: phototoxicity by methods c.1) and c.2); assay type: cell-based, Escherichia coli; conditions: either of the methods c.1) and c.2)
Method: (§1) A 2-hour culture was divided into 1800 μL aliquots. After centrifuging at 20° C., 830 rcf, 5 min (5417R centrifuge, Eppendorf, Hamburg, Germany), the pellets were re-suspended in phosphate buffer (Dulbeccos' Modified Phosphate Saline, DPBS, Sigma-Aldrich) with either 10 or 50 μM of the corresponding photosensitizer, wherein the final volume was kept at 1800 μL.
(§2) The irradiation was carried out under constant shaking (MTS4, IKA, Staufen, Germany, 175 rpm) from below on a LED array with maximum homogeneity of the lighting surface. All of the controls were shaken in the same manner. The technical data for the light source are shown in Table 2; the total dose of light applied was 33.8 J/cm^2.
(§3) The determination of the colony forming units (CFU) was carried out in accordance with the method published by Miles and Misra (Miles, A A; Misra, S S, Irwin, J O (1938 Nov.). “The estimation of the bactericidal power of the blood” The Journal of hygiene 38 (6): 732-49). In this regard, serial dilutions (1:10) of the corresponding bacterial suspension were produced in DPBS. 5×10 μL of each bacterial dilution was then dripped onto Todd-Hewitt plates (with broth, additional 1.5% agar (Agar-Agar, Kobe I, Roth, Karlsruhe, Germany) and incubated at 37° C. for 24 h. Next, the number of surviving colony forming units was determined. All of the tests were carried out four times. […]

S. aureus ATCC 25923 [2] = experiment: as above; assay type: cell-based, Staphylococcus aureus; conditions: either of the methods c.1) and c.2)
Method: as §1, §2, §3

[3] = Comparative Example 3: stability and molar extinction coefficient in aqueous solution; assay type: physicochemical; conditions: comparable with natural curcumin
Method: In a further test, the stability and phototoxicity of the following compounds were tested.
Incubation with the compound (71) (SACUR-01d) and the bacterial strains S. aureus ATCC 25923 and E. coli ATCC 25922 employed as well as irradiation with electromagnetic radiation and determination of the phototoxicity were carried out as described in sections c.1) and c.2) above. […] The free OH groups contribute greatly to this photo-instability because due to them, the compound can readily transform into the quinoid mesomer, and thus cleavage of one half of the molecule with the formation of ferulic acids or substituted vanillins is facilitated.
Aqueous solution A: distilled water.
Aqueous solution B: isotonic sodium chloride solution (0.9% by weight NaCl).
Aqueous solution C: PBS buffer, pH 7.4 (composition: see Sambrook, J.; Maniatis, T.; Russel, D. W.: Molecular cloning: a laboratory manual. Cold Spring Harbor Laboratory Press; 3rd edition (2001)).

E. coli ATCC 25922 [4] = experiment: Phototoxicity test c.2) (BlueV light source, emission maximum approx. 420 nm, CFU count); assay type: cell-based, Escherichia coli; conditions: light dose 15.7 J/cm^2, approx. 420 nm, 15 min at 17.5 mW/cm^2, vs reference control
Method: A sample of the bacterial cell Staphylococcus. aureus (ATCC number: 25923) or Escherichia. coli (ATCC number: 25922) was removed from a cryo-freeze culture and cultured under aerobic conditions at 37° C. and 175 rpm overnight in an orbital shaker (MAXQ4000, Thermo Scientific, Dubuque, Iowa, USA). Growth was carried out in 20 mL Todd-Hewitt broth (Carl Roth, Karlsruhe, Germany) supplemented with 0.3% of yeast extract (AppliChem, Darmstadt, Germany).
In a second experiment, the photosensitizers (PS) used were dissolved in Millipore water and adjusted to various concentrations. 25 μL of a bacterial suspension grown overnight (˜108/mL) was incubated with 25 μL of photosensitizer solution of the various concentrations at room temperature for 10 seconds in darkness in a 96-well plate.
Next, the suspension was irradiated for 5-20 minutes. For the irradiation, the light source BlueV from Waldmann (Villingen-Schwenningen, Germany) was used, which emits light from 380 to 480 nm (emission maximum at approximately 420 nm). The applied energy density was 17.5 mW/cm^2.
Each experiment was accompanied by three controls in order to exclude side effect of the irradiation/photosensitizer (PS) on the survival of the bacteria: (i) no PS, only light (=light control), (ii) no light, only PS (=dark control) and (iii) neither light nor PS (=reference control). The determination of the colony forming units (CFU) per mL was also carried out in accordance with the method published by Miles, Misra and Irwin described above in section c.1). All of the tests were carried out four times.
The photosensitizers (PS) SACUR-01a, SACUR-03 and SACUR-07 were tested against the bacterial strains S. aureus ATCC 25923 and E. coli ATCC 25922 (FIGS. 21-23). All of the remaining PS were tested against S. aureus ATCC 25923 (FIGS. 24-33). FIGS. 21-33 show the logarithmic reduction after illumination with respect to the reference control.
The average reference control (arithmetic mean with standard deviation) (no light, no PS) was 3.6×10^8/mL for E. coli. The logarithmic reduction after illumination is shown with respect to the reference control.

S. aureus ATCC 25923 [5] = experiment: as above; assay type: cell-based, Staphylococcus aureus; conditions: Staphylococcus aureus, ATCC25923, light or radiation study, 5 min, irradiation 5 minutes, approx. 420 nm, 17.5 mW/cm^2, 5.3 J/cm^2, vs reference control
Method: A sample of the bacterial cell Staphylococcus. aureus (ATCC number: 25923) or Escherichia. coli (ATCC number: 25922) was removed from a cryo-freeze culture and cultured under aerobic conditions at 37° C. and 175 rpm overnight in an orbital shaker (MAXQ4000, Thermo Scientific, Dubuque, Iowa, USA). Growth was carried out in 20 mL Todd-Hewitt broth (Carl Roth, Karlsruhe, Germany) supplemented with 0.3% of yeast extract (AppliChem, Darmstadt, Germany). In a second experiment, the photosensitizers (PS) used were dissolved in Millipore water and adjusted to various concentrations. 25 μL of a bacterial suspension grown overnight ( 108/mL) was incubated with 25 μL of photosensitizer solution of the various concentrations at room temperature for 10 seconds in darkness in a 96-well plate. Next, the suspension was irradiated for 5-20 minutes. For the irradiation, the light source BlueV from […], Germany) was used, which emits light from 380 to 480 nm (emission maximum at approximately 420 nm). The applied energy density was 17.5 mW/cm^2. Each experiment was accompanied by three controls in order to exclude side effect of the irradiation/photosensitizer (PS) on the survival of the bacteria: (i) no PS, only light (=light control), (ii) no light, only PS (=dark control) and (iii) neither light nor PS (=reference control). […] All of the tests were carried out four times. […] All of the remaining PS were tested against S. aureus ATCC 25923 (FIGS. 24-33). FIGS. 21-33 show the logarithmic reduction after illumination with respect to the reference control. […] The irradiation period was 5 minutes (emission maximum at approximately 420 nm) for an applied intensity of 17.5 mW/cm^2, i.e. an applied light energy (dosage) of 5.3 J/cm^2. The average reference control (arithmetic mean with standard deviation) (no light, no PS) was 3.9×10^8/mL. The logarithmic reduction after illumination is shown with respect to the reference control.

[6] = natural curcumin, background statement; cited from earlier work

CN(C)c1ccc(/C=C/C2=CC(=C/C=C3C=CC(=[N+](C)C)C=C3)/O[B-](F)(F)O2)cc1 [CRANAD-2, reference compound]
Inactivation of E. coli ATCC 25922 upon illumination in the presence of the compound (E. coli ATCC 25922 [1]): could not be ascertained | Inactivation of S. aureus ATCC 25923 upon illumination in the presence of the compound (S. aureus ATCC 25923 [2]): could not be ascertained

Cl.Cl.NCCOc1ccc(/C=C/C(=O)CC(=O)/C=C/c2ccc(OCCN)c(O)c2)cc1O [Curcumin 01d hydrochloride]
Inactivation of E. coli ATCC 25922 upon illumination in the presence of the compound (E. coli ATCC 25922 [1]): Hardly any inactivation | Stability in aqueous solution [3]: low stability | Inactivation of S. aureus ATCC 25923 upon illumination in the presence of the compound (S. aureus ATCC 25923 [2]): Hardly any inactivation

CCCCCCCCOc1ccc(/C=C/C(=O)CC(=O)/C=C/c2ccc(OCCCCCCCC)c(OCCN)c2)cc1OCCN.Cl [Curcumin 07 hydrochloride]
Effectiveness against E. Coli: Reduction in CFU in log10 at concentration of 10 μM (E. coli ATCC 25922 [4]; 10 μM): >1 log10 | Effectiveness against E. Coli: Reduction in CFU in log10 at concentration of 50 μM (E. coli ATCC 25922 [4]; 50 μM): >4 log10 | log reduction at 10 µM (S. aureus ATCC 25923 [5]; 10 μM, read-out: Effectiveness against S. aureus: Reduction in CFU in log10 at concentration of 10 μM): > 2 | log reduction at 50 µM (S. aureus ATCC 25923 [5]; 50 μM, read-out: Effectiveness against S. aureus: Reduction in CFU in log10 at concentration of 50 μM): > 5

COc1cc(C=CC(=O)CC(=O)C=Cc2ccc(O)c(OC)c2)ccc1O [curcumin, 1,7-bis-(4-hydroxy-3-methoxyphenyl)-1,6-heptadiene-3,5-dione]
Solubility in water [6]: low solubility in water
